Measured values published in patent publication US20230142274A1 (SIMCERE PHARMACEUTICAL CO., LTD., priority 2020, published 2023).
Like-named read-outs stand apart in the source and are kept apart here.

Test system: Daudi cells
Assay: Inhibition of human Daudi lymphoma cell proliferation (Cell-Titer Glo)
Type: cell-based
Conditions: 3 days incubation, read-out: Anti-Proliferative Activity Against Daudi cells IC50
Method: Introduction of the experimental principle: After the RAD51 inhibitor to be tested was co-incubated with cancer cells for a period of time, the influence of the test compound on cell proliferation was measured by a method for counting cell proliferation based on the quantitative measurement of intracellular ATP content.
Materials and Cells: Daudi cells were purchased from ATCC; fetal bovine serum, 1640 medium and penicillin-streptomycin were purchased from Gibco Inc. (U.S.), 96-well plates were purchased from Corning Inc. (U.S.), and Cell-Titer Glo reagent was purchased from Promega Corporation (U.S.).
Cell culture: Daudi cells were cultured in 1640 culture medium containing 10% fetal bovine serum and 1% penicillin-streptomycin at 37° C. in an atmosphere containing 5% CO2. Cells in logarithmic growth phase could be used for experiments.
Assay of cell proliferation and viability: Cell-Titer Glo reagent was used to measure the inhibitory activities of the compounds on the proliferation of Daudi cell strain. The concentration of cells was adjusted, and the cells were seeded in a 96-well plate and cultured at 37° C. in an atmosphere containing 5% CO2 for 24 hours. The powder of the compound was dissolved in 100% DMSO to form a 10 mM solution. 10 μl of the solution of the compound was aspirated and transferred into a 96-well compound plate containing 20 μl of DMSO solution for 3-fold dilution and was then formulated into 10 serial dilutions. Thereafter, 2 μl of the solution of the compound was aspirated from the corresponding well and added correspondingly into a 96-well intermediate compound dilution plate containing 78 μl of complete culture medium in each well. The resultant was mixed well, and the plate was centrifuged at 1000 rpm for 1 minute. Finally, 10 μl of the solution of the compound was aspirated from the corresponding well of the 96-well intermediate compound dilution plate, and transferred into the corresponding well of the cell culture plate containing 90 μl of complete culture medium. The final concentration of DMSO was 0.25%. After the addition of the compound, the cells were continued to be incubated for 3 days at 37° C. in an atmosphere containing 5% CO2. Cell-Titer Glo reagent was added to measure cell viability.
% Compound inhibition was calculated and IC50 of the compound was filled;
% Compound inhibition=1−100%×(Signal−Bottom)/(Top−Bottom)

IC50 (Homo sapiens, 72 h) [nM] | IC50 [nM] | SMILES
275 |  | Cc1cc(Nc2ccc(-c3nc4c(s3)CC(NC(=O)OC(C)C)CC4)c(S(=O)(=O)C3CC3)c2)n[nH]1 (stereo not drawn) [Example 107, isopropyl (2-(2-(cyclopropylsulfonyl)-4-((5-methyl-1H-pyrazol-3-yl)amino)phenyl)-4,5,6,7-tetrahydrobenzo[d]thiazol-6-yl)carbamate]
4 |  | Cc1cc(Nc2ccc(-c3cnc(C45CCC(NC(=O)OC(C)C)(CC4)CC5)s3)c(S(=O)(=O)C3CC3)c2)n[nH]1 [Example 60]
4 |  | COc1ccc(Nc2ccc(-c3cnc([C@H]4CC[C@H](NC(=O)OC(C)C)CC4)s3)c(S(=O)(=O)C3CC3)c2)nc1 [Example 78, isopropyl trans-(4-(5-(2-(cyclopropylsulfonyl)-4-((5-methoxypyridin-2-yl)amino)phenyl)thiazol-2-yl)cyclohexyl)carbamate]
65 |  | Cc1cc(Nc2ccc(-c3cnc([C@H]4CC[C@H](NC(=O)OC(C)C)CC4)s3)c(S(=O)(=O)C(F)(F)F)c2)n[nH]1 [Example 51, isopropyl trans-N-[4-[5-[4-[(5-methyl-1H-pyrazol-3-yl)amino]-2-(trifluoromethylsulfonyl)phenyl]thiazol-2-yl]cyclohexyl]carbamate]
26 |  | Cc1cc(Nc2ccc(-c3cnc([C@H]4CC[C@H](NC(=O)OC(C)C)CC4)s3)c(S(=N)(=O)C3COC3)c2)n[nH]1 (stereo partly drawn) [Example 105, isopropyl trans-N-[4-[5-[4-[(5-methyl-1H-pyrazol-3-yl)amino]-2-(oxetan-3-ylsulfonimidoyl)phenyl]thiazol-2-yl]cyclohexyl]carbamate]
16 |  | CC(C)OC(=O)N[C@H]1CC[C@H](c2ncc(-c3ccc(Nc4cn[nH]c4)cc3S(=O)(=O)C3CC3)s2)CC1 [Example 71]
10 |  | COc1ccc(Nc2ccc(-c3cnc([C@H]4CC[C@H](NC(=O)OC(C)C)CC4)s3)c(S(=O)(=O)C3CC3)c2)cn1 [Example 93, isopropyl trans-(4-(5-(2-(cyclopropylsulfonyl)-4-((6-methoxypyridin-3-yl)amino)phenyl)thiazol-2-yl)cyclohexyl)carbamate]
9 |  | CC(C)OC(=O)N[C@H]1CC[C@H](c2ncc(-c3ccc(Nc4cccnc4)cc3S(=O)(=O)C3CC3)s2)CC1 [Example 76, isopropyl trans-N-[4-[5-[2-cyclopropylsulfonyl-4-(3-pyridylamino)phenyl]thiazol-2-yl]cyclohexyl]carbamate]
104 |  | Cc1cc(Nc2ccc(-c3cnc(-c4ccc(NC(=O)OC(C)C)cc4)s3)c(S(=O)(=O)C3CC3)c2)n[nH]1 [Example 61]
17 |  | CC(C)OC(=O)N[C@H]1CC[C@H](c2ncc(-c3ccc(Nc4ccc(F)cn4)cc3S(=O)(=O)C3COC3)s2)CC1 [Example 112, isopropyl trans-N-[4-[5-[4-[(5-fluoro-2-pyridyl)amino]-2-(oxetan-3-ylsulfonyl)phenyl]thiazol-2-yl]cyclohexyl]carbamate]

More lines, now with the values behind:

SMILES | IC50 (Homo sapiens, 72 h) [nM] | IC50 [nM]
CC(C)OC(=O)N[C@H]1CC[C@H](c2ncc(-c3ccc(Nc4ccc(C(F)(F)F)cn4)cc3S(=N)(=O)C3CC3)s2)CC1 (stereo partly drawn) [Example 82] | 250 | 
CN=S(=O)(c1cc(NC(=O)OC(C)C)ccc1-c1cnc(C2CCC(NC(=O)OC(C)C)CC2)s1)C(C)C (stereo not drawn) [Example 20, isopropyl trans-N-[4-[2-[4-(isopropoxycarbonylamino)cyclohexyl]thiazol-5-yl]-3-(isopropyl-N-methyl-sulfonimidoyl)phenyl]carbamate] | 2750 | 
COc1ccc(-c2ccc(-c3cnc([C@H]4CC[C@H](NC(=O)OC(C)C)CC4)s3)c([S@](=N)(=O)C3CC3)c2)cn1 (stereo in doubt) [Example 94-1, isopropyl trans-((4-(5-(2-((R)-cyclopropanesulfonimidoyl))-4-(6-methoxypyridin-3-yl)phenyl)thiazol-2-yl)cyclohexyl)carbamate] |  | 60
CC(C)OC(=O)Nc1ccc(-c2cnc([C@H]3CC[C@H](NC(=O)OC(C)C)CC3)s2)c(S(=O)(=O)CC(C)(C)C)c1 [Example 24, isopropyl trans-N-[3-(2,2-dimethylpropylsulfonyl)-4-[2-[4-(isopropoxycarbonylamino)cyclohexyl]thiazol-5-yl]phenyl]carbamate] | 2270 | 
CC(C)OC(=O)N[C@H]1CC[C@H](c2ncc(-c3ccc(Nc4ccc(=O)[nH]c4)cc3S(=N)(=O)C3CC3)s2)CC1 (stereo partly drawn) [Example 95, isopropyl trans-(4-(5-(2-(cyclopropanesulfonimidoyl)-4-((6-oxo-1,6-dihydropyridin-3-yl)amino)phenyl)thiazol-2-yl)cyclohexyl)carbamate] | 132 | 
CC(C)OC(=O)Nc1ccc(-c2cnc(C3CCC(NC(=O)OC(C)C)CC3)s2)c(S(C)(=O)=NC2CC2)c1 (stereo not drawn) [Example 43, isopropyl trans-N-[3-(N-cyclopropyl-S-methyl-sulfonimidoyl)-4-[2-[4-(isopropoxycarbonylamino)cyclohexyl]thiazol-5-yl]phenyl]carbamate] | 1580 | 
CC(C)OC(=O)NC1CCC(c2ncc(-c3ccc(N4CCCO4)cc3S(=N)(=O)C3CC3)s2)CC1 (stereo not drawn) [Example 64, isopropyl trans-(4-(5-(2-(cyclopropanesulfonimidoyl)-4-(isoxazolidin-2-yl)phenyl)thiazol-2-yl)cyclohexyl)carbamate] | 5200 | 
Cc1cc(Nc2ccc(-c3cnc([C@H]4CC[C@H](NC(=O)OC(C)C)CC4)s3)c(S(=O)(=O)C3CC3)c2)n(C)n1 [Example 116, isopropyl trans-(4-(5-(2-(cyclopropylsulfonyl)-4-((1,3-dimethyl-1H-pyrazol-5-yl)amino)phenyl)thiazol-2-yl)cyclohexyl)carbamate] | 4 | 
CC(C)OC(=O)Nc1ccc(-c2nnc([C@H]3CC[C@H](NC(=O)OC(C)C)CC3)s2)c(S(=N)(=O)C(C)C)c1 (stereo partly drawn) [Example 41, isopropyl trans-N-[4-[5-[4-(isopropoxycarbonylamino)cyclohexyl]-1,3,4-thiadiazol-2-yl]-3-(isopropylsulfonimidoyl)phenyl]carbamate] | 900 | 
CC(C)OC(=O)Nc1ccc(-c2cnc(N3CCCC(NC(=O)OC(C)C)CC3)s2)c(S(=O)(=O)NC(C)(C)C)c1 (stereo not drawn) [Example 11, isopropyl N-[3-(tert-butylsulfamoyl)-4-[2-[4-(isopropoxycarbonylamino)azepan-1-yl]thiazol-5-yl]phenyl]carbamate] | 2540 | 
CC(=O)Nc1ccc(-c2cnc([C@H]3CC[C@H](NC(=O)OC(C)C)CC3)s2)c(S(=N)(=O)C2CC2)c1 (stereo partly drawn) [Example 67, isopropyl trans-(4-(5-(4-acetylamino-2-(cyclopropanesulfonimidoyl)phenyl]thiazol-2-yl)cyclohexyl)carbamate] | 2600 | 
CC(C)OC(=O)NC1CCC(c2ncc(-c3ccc(Nc4ncncn4)cc3S(=O)(=O)C3CC3)s2)CC1 (stereo not drawn) [Example 80, isopropyl trans-N-[4-[5-[2-cyclopropylsulfonyl]-4-(1,3,5-triazin-2-ylamino)phenyl]thiazol-2-yl]cyclohexyl]carbamate] | 330 | 
CC(C)OC(=O)N[C@H]1CC[C@H](c2ncc(-c3ccc(Nc4ncccn4)cc3S(=O)(=O)C3CC3)s2)CC1 [Example 79, isopropyl trans-(4-(5-(2-(cyclopropylsulfonyl)-4-(pyrimidin-2-ylamino)phenyl)thiazol-2-yl)cyclohexyl)carbamate] | 51 | 
CC(C)OC(=O)N[C@H]1CC[C@H](c2ncc(-c3ccc(NC(=O)C4CC4)cc3S(=O)(=O)C3CC3)s2)CC1 [Example 74, isopropyl trans-(4-(5-(4-(cyclopropanecarboxamido)-2-(cyclopropylsulfonyl)phenyl)thiazol-2-yl)cyclohexyl)carbamate] | 90 | 
CC(C)OC(=O)Nc1ccc(-c2cnc(N3CCC4(CC3)CN(C(=O)OC(C)C)C4)s2)c(S(=O)(=O)NC(C)(C)C)c1 [Example 8, isopropyl 7-(5-(2-(N-(tert-butyl)sulfamoyl)-4-((isopropoxycarbonyl)amino)phenyl)thiazol-2-yl)-2,7-diazaspiro[3.5]nonane-2-carboxylate] | 3950 | 
CC(C)OC(=O)N[C@H]1CC[C@H](c2ncc(-c3ccc(Nc4ccon4)cc3S(=O)(=O)NC(C)(C)C)s2)CC1 [Example 30, isopropyl trans-(4-(5-(2-(N-(tert-butyl)sulfamoyl)-4-(isoxazol-3-ylamino)phenyl)thiazol-2-yl)cyclohexyl)carbamate] | 2650 | 
CC(C)OC(=O)N[C@H]1CC[C@H](c2ncc(-c3ccc(-n4cccn4)cc3S(=O)(=O)C3CC3)s2)CC1 [Example 87, isopropyl trans-N-[4-[5-(2-cyclopropylsulfonyl-4-pyrazol-1-yl-phenyl)thiazol-2-yl]cyclohexyl]carbamate] | 290 | 
